# Laboratory results published in patent US12404285B2, “KRAS G12D proteolysis targeting chimeras” (PAQ Therapeutics Inc., priority 2022, dated 2025).
# Biological target: T1, KRAS in AGS cells (KRAS G12D mutant cell line) or LS180 cells (KRAS G12D mutant cell line) (Homo sapiens, UniProt P01116, G12D)
# T1 construct: CRL-187 (LS180) (so in the source); host or cells: AGS or LS180 cells
# Assay: KRAS Western Blot (WB) assay
# Type: cell-based
# Conditions: KRAS degradation, 24 hours incubation, normalized to β-actin
# Procedure: Day 1. Seeded AGS cells (KRAS G12D mutant cell line, ATCC, CRL-1739) or LS180 cells (KRAS G12D mutant cell line, ATCC, CRL-187) into 6-well plates (cell density: 3×10^5 cells/well/2 ml medium) in Ham's F-12 medium (Invitrogen, 11765-054) or Eagle's Minimum Essential Medium (ATCC, 30-2003) and incubated overnight at 37° C. and 5% CO2.
# Day 2. Aspirated 1 ml medium from each well and added 1 ml medium containing DMSO or test compound into the well to achieve the desired final concentration. Mixed well by gentle shaking and incubated for 24 hours.
# Day 3. Aspirated media from plates; washed cells with 2 ml 4° C. PBS (Solarbio, P1020-500) and aspirated the PBS. Then added 100 μl 4° C. […] lysis buffer (Boston BioProducts BP-115D) with protease and phosphatase inhibitors at vendor recommended concentrations (Roche 05892791001 and 04906837001) into each well to lyse the cells, and incubated for 20 minutes at 4° C. Cell lysate was collected into 1.5 ml Eppendorf tube, and the lysate was sonicated at 4° C. for 2 minutes (5 second pulse at 30% power with 10 second intermissions). The lysate was centrifuged at 12,000 rpm for 15 minutes at 4° C. The supernatant was transferred to a fresh Eppendorf tube, and protein concentration was quantified using a BCA kit (Solarbio, PC0020-500). Mixed the cell lysate and 5×NuPAGE SDS Loading Buffer (Beyotime, P0015L), and heated at 95° C. for 10 minutes in a heat block. Prepared samples were stored at −80° C. until SDS-PAGE procedure.
# Day 4. Loaded 15 μg protein from each sample onto NuPAGE® Novex 4-12% Bis-Tris Midi Gel, 26 W (Invitrogen, WG1403BOX) and ran the gel at 120V for 1.5 hours in 1×NuPAGE® MOPS SDS Running Buffer (Novex, NP0001). Electrotransferred to nitrocellulose membrane using dry transfer method (iBlot 2 Transfer Stacks, nitrocellulose, IB23001) with a program consisting of 20V for 1 minute, 23V for 4 minutes and 25V for 2 minutes. Blocked the membrane with 5% BSA (Solarbio, A8020) in 1×TBST (CST, 9997S) for 1 hour at room temperature. Incubated with KRAS antibody (LSBio, LS-C175665, clone 2C1) at 1:1000 dilution and β-actin antibody at 1:1000 dilution (CST, 4970S) in TBST containing 1% BSA (Solarbio, A8020) at 4° C. overnight.
# Day 5. Washed nitrocellulose membrane three times with 1×TBST for 10 minutes each at room temperature. Incubated with fluorescently labeled secondary antibodies at 1:5000 dilution in TBST containing 1% BSA (anti-rabbit IgG, Licor, 926-32211; anti-mouse IgG, LI-COR, 926-68070) for 1 hour at room temperature. Washed membrane three times with TBST, 10 minutes each. Scanned the membrane on LiCOR scanner for fluorescent signal(s) and quantified KRAS bands and β-actin bands for normalization.
# The data are reported in Table 2, wherein “A” indicates a DC50 of less than 1 μM; “B” indicates a DC50 of greater than or equal to 1 μM and less than 10 μM; and “C” indicates a DC50 of greater than or equal to 10 μM.
# T1 sequence (P01116 1-188 isoform P01116-2 G12D): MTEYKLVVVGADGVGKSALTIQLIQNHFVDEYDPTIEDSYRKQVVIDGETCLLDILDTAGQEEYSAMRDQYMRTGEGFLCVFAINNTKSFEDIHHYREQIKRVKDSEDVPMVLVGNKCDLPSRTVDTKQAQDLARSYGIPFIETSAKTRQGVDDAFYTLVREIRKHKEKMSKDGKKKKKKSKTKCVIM
row,DC50,Compound
1,A (DC50 less than 1 μM),"C#Cc1c(F)ccc2cc(O)cc(-c3ncc4c(N5CC6CCC(C5)N6)nc(OC[C@@]56CCCN5[C@H](COC(=O)NCCCCCCCCCCNc5ccc7c(c5)C(=O)N(C5CCC(=O)NC5=O)C7=O)CC6)nc4c3F)c12 (stereo partly drawn) [Compound 015, [(3S,8S)-8-[[4-(3,8-diazabicyclo[3.2.1]octan-3-yl)-7-(8-ethynyl-7-fluoro-3-hydroxy-1-naphthyl)-8-fluoro-pyrido[4,3-d]pyrimidin-2-yl]oxymethyl]-1,2,3,5,6,7-hexahydropyrrolizin-3-yl]methyl N-[10-[[2-(2,6-dioxo-3-piperidyl)-1,3-dioxo-isoindolin-5-yl]amino]decyl]carbamate]"
2,A (DC50 less than 1 μM),"C#Cc1c(F)ccc2cc(O)cc(-c3ncc4c(N5CC6CCC(C5)N6)nc(OCC56CCCN5[C@H](COC(=O)NCCCCCCCCCNc5cccc7c5C(=O)N(C5CCC(=O)NC5=O)C7=O)CC6)nc4c3F)c12 (mixture of isomers) [Compound 023, (3RS,8RS)-[8-[[4-(3,8-Diazabicyclo[3.2.1]octan-3-yl)-7-(8-ethynyl-7-fluoro-3-hydroxy-1-naphthyl)-8-fluoro-pyrido[4,3-d]pyrimidin-2-yl]oxymethyl]-1,2,3,5,6,7-hexahydropyrrolizin-3-yl]methyl N-[9-[[2-(2,6-dioxo-3-piperidyl)-1,3-dioxo-isoindolin-4-yl]amino]nonyl]carbamate]"
3,C (DC50 greater than or equal to 10 μM),C#Cc1c(F)ccc2cc(O)cc(-c3ncc4c(N5CC6CCC(C5)N6)nc(OC[C@]56CCCN5[C@@H](COC(=O)NCCOCCOCCNc5cccc7c5C(=O)N(C5CCC(=O)NC5=O)C7=O)CC6)nc4c3F)c12 (some centres unmarked) [Compound 025]
4,C (DC50 greater than or equal to 10 μM),"C#Cc1c(F)ccc2cc(O)cc(-c3ncc4c(N5CC6CCC(C5)N6)nc(OC[C@]56CCCN5[C@@H](COC(=O)NCCCCCCNc5cccc7c5C(=O)N(C5CCC(=O)NC5=O)C7=O)CC6)nc4c3F)c12 (stereo partly drawn) [Compound 022, [(3R,8R)-8-[[4-(3,8-diazabicyclo[3.2.1]octan-3-yl)-7-(8-ethynyl-7-fluoro-3-hydroxy-1-naphthyl)-8-fluoro-pyrido[4,3-d]pyrimidin-2-yl]oxymethyl]-1,2,3,5,6,7-hexahydropyrrolizin-3-yl]methyl N-[6-[[2-(2,6-dioxo-3-piperidyl)-1,3-dioxo-isoindolin-4-yl]amino]hexyl]carbamate]"
5,A (DC50 less than 1 μM),"C#Cc1c(F)ccc2cc(O)cc(-c3ncc4c(N5CC6CCC(C5)N6)nc(OC[C@@]56CCCN5[C@H](COC(=O)NCCCCCCCCCNc5cccc7c5C(=O)N(C5CCC(=O)NC5=O)C7=O)CC6)nc4c3F)c12 (stereo partly drawn) [Compound 016, ((3S,7aS)-7a-(((4-(3,8-diazabicyclo[3.2.1]octan-3-yl)-7-(8-ethynyl-7-fluoro-3-hydroxynaphthalen-1-yl)-8-fluoropyrido[4,3-d]pyrimidin-2-yl)oxy)methyl)hexahydro-1H-pyrrolizin-3-yl)methyl (9-((2-(2,6-dioxopiperidin-3-yl)-1,3-dioxoisoindolin-4-yl)amino)nonyl)carbamate]"
6,C (DC50 greater than or equal to 10 μM),"C#Cc1c(F)ccc2cc(O)cc(-c3ncc4c(N5CC6CCC(C5)N6)nc(OC[C@@]56CCCN5[C@H](COC(=O)NCCCCCc5cccc7c5n(C)c(=O)n7C5CCC(=O)NC5=O)CC6)nc4c3F)c12 (stereo partly drawn) [Compound 007, [(3S,8S)-8-[[4-(3,8-diazabicyclo[3.2.1]octan-3-yl)-7-(8-ethynyl-7-fluoro-3-hydroxy-1-naphthyl)-8-fluoro-pyrido[4,3-d]pyrimidin-2-yl]oxymethyl]-1,2,3,5,6,7-hexahydropyrrolizin-3-yl]methyl N-[5-[1-(2,6-dioxo-3-piperidyl)-3-methyl-2-oxo-benzimidazol-4-yl]pentyl]carbamate]"
7,C (DC50 greater than or equal to 10 μM),"C#Cc1c(F)ccc2cc(O)cc(-c3ncc4c(N5C[C@H]6CC[C@@H](C5)N6)nc(OC[C@@]56CCCN5[C@H](COC(=O)NCCCCc5ccc7c(c5)n(C)c(=O)n7C5CCC(=O)NC5=O)CC6)nc4c3F)c12 (stereo partly drawn) [Compound 006, ((3S,7aS)-7a-(((4-((1R,5S)-3,8-diazabicyclo[3.2.1]octan-3-yl)-7-(8-ethynyl-7-fluoro-3-hydroxynaphthalen-1-yl)-8-fluoropyrido[4,3-d]pyrimidin-2-yl)oxy)methyl)hexahydro-1H-pyrrolizin-3-yl)methyl (4-(1-(2,6-dioxopiperidin-3-yl)-3-methyl-2-oxo-2,3-dihydro-1H-benzo[d]imidazol-5-yl)butyl)carbamate]"
8,A (DC50 less than 1 μM),"C#Cc1c(F)ccc2cccc(-c3ncc4c(N5CC6CCC(C5)N6)nc(OC[C@@]56CCCN5[C@H](COC(=O)NCCCCCCCCc5ccc7c(c5)n(C)c(=O)n7C5CCC(=O)NC5=O)CC6)nc4c3F)c12 (stereo partly drawn) [Compound 029, [(3S,8S)-8-[[4-(3, example 208-diazabicyclo[3.2.1]octan-3-yl)-7-(8-ethynyl-7-fluoro-1-naphthyl)-8-fluoro-pyrido[4,3-d]pyrimidin-2-yl]oxymethyl]-1,2,3,5,6,7-hexahydropyrrolizin-3-yl]methyl N-[8-[1-(2,6-dioxo-3-piperidyl)-3-methyl-2-oxo-benzimidazol-5-yl]octyl]carbamate]"
9,A (DC50 less than 1 μM),"C#Cc1c(F)ccc2cc(O)cc(-c3ncc4c(N5CC6CCC(C5)N6)nc(OC[C@@]56CCCN5[C@H](COC(=O)NCCCCCCCCCc5ccc7c(c5)n(C)c(=O)n7C5CCC(=O)NC5=O)CC6)nc4c3F)c12 (stereo partly drawn) [Compound 010, [(3S,8S)-8-[[4-(3,8-diazabicyclo[3.2.1]octan-3-yl)-7-(8-ethynyl-7-fluoro-3-hydroxy-1-naphthyl)-8-fluoro-pyrido[4,3-d]pyrimidin-2-yl]oxymethyl]-1,2,3,5,6,7-hexahydropyrrolizin-3-yl]methyl N-[9-[1-(2,6-dioxo-3-piperidyl)-3-methyl-2-oxo-benzimidazol-5-yl]nonyl]carbamate]"
10,A (DC50 less than 1 μM),"C#Cc1c(F)ccc2cc(O)cc(-c3ncc4c(N5CC6CCC(C5)N6)nc(OC[C@@]56CCCN5[C@H](COC(=O)NCCCCCCCCCCc5cccc7c5n(C)c(=O)n7C5CCC(=O)NC5=O)CC6)nc4c3F)c12 (stereo partly drawn) [Compound 014, [(3S,8S)-8-[[4-(3,8-diazabicyclo[3.2.1]octan-3-yl)-7-(8-ethynyl-7-fluoro-3-hydroxy-1-naphthyl)-8-fluoro-pyrido[4,3-d]pyrimidin-2-yl]oxymethyl]-1,2,3,5,6,7-hexahydropyrrolizin-3-yl]methyl N-[10-[1-(2,6-dioxo-3-piperidyl)-3-methyl-2-oxo-benzimidazol-4-yl]decyl]carbamate]"

row,Compound,DC50
1,C#Cc1c(F)ccc2cc(O)cc(-c3ncc4c(N5CC6CCC(C5)N6)nc(OC[C@@]56CCCN5[C@H](COC(=O)NCCCCCCCCNc5cccc7c5C(=O)N(C5CCC(=O)NC5=O)C7=O)CC6)nc4c3F)c12 (some centres unmarked) [Compound 018],B (DC50 greater than or equal to 1 μM and less than 10 μM)
